The values that follow come from patent publication US20250049939A1, “NOVEL FLT3 ANTIBODIES AND ANTIBODY-DRUG-CONJUGATES BASED THEREON, THERAPEUTIC METHODS AND USES THEREOF IN COMBINATION WITH TYROSINE KINASE INHIBITORS” (TUBULIS GmbH, priority 2021, published 2025).

Data set [1] has as its target T1, Ba/F3 cells expressing human wildtype FLT3 (Homo sapiens, UniProt P36888).
T1 sequence (P36888 27-993): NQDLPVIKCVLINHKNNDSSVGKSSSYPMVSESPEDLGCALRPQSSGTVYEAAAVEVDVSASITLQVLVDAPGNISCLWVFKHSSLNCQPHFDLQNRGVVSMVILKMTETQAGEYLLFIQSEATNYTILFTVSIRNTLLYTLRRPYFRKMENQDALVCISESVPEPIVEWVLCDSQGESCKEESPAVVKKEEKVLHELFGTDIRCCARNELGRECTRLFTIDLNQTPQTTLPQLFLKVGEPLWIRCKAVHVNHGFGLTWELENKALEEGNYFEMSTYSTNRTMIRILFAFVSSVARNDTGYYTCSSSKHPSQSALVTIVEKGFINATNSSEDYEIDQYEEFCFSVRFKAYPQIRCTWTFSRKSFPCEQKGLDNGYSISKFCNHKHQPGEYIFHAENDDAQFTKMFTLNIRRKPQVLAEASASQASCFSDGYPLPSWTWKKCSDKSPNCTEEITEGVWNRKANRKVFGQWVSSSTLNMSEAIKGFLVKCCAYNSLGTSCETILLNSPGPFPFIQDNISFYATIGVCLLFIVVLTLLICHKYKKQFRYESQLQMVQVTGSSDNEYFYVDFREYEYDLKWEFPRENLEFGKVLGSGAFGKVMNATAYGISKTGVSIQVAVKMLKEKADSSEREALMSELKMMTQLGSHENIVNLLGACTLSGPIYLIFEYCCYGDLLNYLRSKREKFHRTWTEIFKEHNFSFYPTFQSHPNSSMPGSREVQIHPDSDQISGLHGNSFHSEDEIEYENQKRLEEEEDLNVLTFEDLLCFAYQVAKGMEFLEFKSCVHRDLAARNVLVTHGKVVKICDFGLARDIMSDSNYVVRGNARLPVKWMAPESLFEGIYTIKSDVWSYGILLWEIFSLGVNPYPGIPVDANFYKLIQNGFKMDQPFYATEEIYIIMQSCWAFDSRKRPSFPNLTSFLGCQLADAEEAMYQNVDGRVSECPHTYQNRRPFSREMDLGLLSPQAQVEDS
Put plainly: Cytotoxicity in Ba/F3 hFLT3 wt, 72 h. The settings on record: Ba/F3 cells expressing the empty vector or human wild type FLT3. How it is done: (§1) (A) Schematic process of P5 conjugation technology via disulfite bond reduction and Staudinger induced Michael addition. Final ADC consists of monoclonal antibody (20D9 or IgG1 antibody) coupled to monomethyl-auristatin F toxin. Figure was created with BioRender.com. (B-E,G) Assessment of cytotoxicity of ADCs in different Ba/F3 cell lines. Viability was determined after 72 h treatment with different concentrations by trypan blue exclusion count and compared to untreated control. Mean±s.d. of n=3 biological replicates. […] Calculation based on data from FIGS. 2E and 2G calculated by GraphPad Prism. Unpaired, two-tailed Student's t-test; *p<0.05. Each dot represents a replicate, horizontal line indicates mean.
(§2) AML cells were treated once (d0) and viability was determined after 96h using Resazurin solution (50 µM final concentration, 4 h incubation) (R12204, Thermo Fisher Scientific). For Ba/F3 cell assays, cells were treated once (d0) and viable cells were counted after 72 h on Vi-Cell Cell Viability Analyzer (Beckman Coulter, Krefeld, Germany). Calculation of IC50 values were performed using GraphPad Prism version 6.07 (GraphPad Software, La Jolla, CA, USA).

The test system of the next data set is MOLM-13 cells. As to the kind of experiment: Cytotoxicity in MOLM-13, 96 h resazurin. It counts as cell-based, human. The source says:
(A) Correlation of MFI of CD64 cell surface expression and MFI of FLT3 cell surface expression of myeloid human cell lines measure in flow cytometry. Expression data presented in Supplementary FIGS. 4A and B. Black line indicates simple linear regression with error interval. r=Pearson correlation coefficient; r^2=Coefficient of determination; p=p value from two tailed test with confidence interval of 95%. MFI=mean fluorescence intensity. (B,C,E,F) Assessment of cytotoxicity of ADCs in different human cell lines. Viability was determined after 96h treatment with different concentrations of ADCs by resazurin fluorescence and normalized to untreated control. Dashed line indicates 100 ng/ml drug concentration. Mean±s.d. of n=3 biological replicates. […] Black line indicates simple linear regression with error interval. (E) Treatment of FLT3 positive human cell lines with IgG1-ADC.
A general note: Alamar Blue is a resazurin reagent that responds to reducing activity.

For the next data set, the system named is MOLM-13 xenograft. As to the kind of experiment: MOLM-13 xenograft in NSG mice, bioluminescence imaging. It is filed as in vivo. To be noted: 3 mg/kg; Q1W×2.
In data set [2] the test system is Ba/F3-pMIY-CD64 expressing cells. As to the kind of experiment: Cytotoxicity in Ba/F3-pMIY-CD64, 72 h. It is filed as cell-based, human. On the procedure:
as §1, §2

The subject of data set [3] is Ba/F3 cells expressing both FLT3 and CD64. Put plainly: Cytotoxicity in Ba/F3-CD64-FLT3, 72 h. It counts as cell-based, human. How it is done:
as §1, §2

The next data set relates to healthy CD34+ BM cells. To be noted: 1 μg/ml.
Data set [4] relates to CD34 positive healthy bone marrow (BM) cells. Put plainly: Differentiation assessment of healthy CD34+ cells. The settings on record: 1 μg/ml.
Excerpt: (§3) (D) Differentiation assessment after staining to differentiation markers. CMP: common myeloid GMP: progenitors; granulocyte-monocyte progenitors; MEP: megakaryocyte/erythroid progenitors; MLP: multilymphoid progenitors; MPP: multipotent progenitors; hematopoietic stem cells (HSC). (E) Assessment of clonogenic capacity of healthy CD34+ BM cells. […] After 14 days, colonies were counted. GEMM: granulocyte, erythrocyte, macrophage, megakaryocyte. GM: granulocyte, macrophage. M: macrophage. G: granulocyte. E: erythrocyte. BFU-E: burst-forming unit erythrocyte. CFU: colony forming unit. 2way ANOVA; *p<0.05; Mean±s.d. of n=5.
The test system is the same in data set [5]. Put plainly: Viability of healthy CD34+ bone marrow cells, Annexin V/PI, 4 days. To be noted: 1000 ng/ml.
Excerpt: (C) Percentage of living cells measured with Annexin V/PI staining and normalized to PBS.
Data set [6] has as its system FLT3 cell surface expression in MOLM-13 cells. As to the kind of experiment: FLT3 cell surface expression in MOLM-13 after kinase inhibitors, flow cytometry. It counts as cell-based, human. The settings on record: 6, 24, 48 and 72 h incubation. How it is done: Cells were analyzed in flow cytometry after treatment. Dotted line represents MFI ratio of untreated cells. Mean±s.d. of n=2 is depicted. […] Grey triangles indicate increasing drug concentrations. […] Mean±standard deviation is depicted.
A general note: In flow cytometry, cells or beads pass a laser one at a time.

Square brackets hold non-standard residues; d marks the D form. Peptide text beside a SMILES is read from it. Dolaproine = CO[C@@H]([C@@H]1CCCN1)[C@@H](C)C(=O)O; Dil = CC[C@H](C)[C@H](NC)[C@@H](CC(=O)O)OC; NMeV = CN[C@H](C(=O)O)C(C)C

Excerpt for healthy CD34+ BM cells: as §3

For `CC[C@H](C)[C@@H]([C@@H](CC(=O)N1CCC[C@H]1[C@H](OC)[C@@H](C)C(=O)N[C@@H](Cc1ccccc1)C(=O)O)OC)N(C)C(=O)[C@@H](NC(=O)[C@@H](NC)C(C)C)C(C)C` [MMAF, monomethyl auristatin F] (H-[NMeV]V[Dil][Dolaproine]F-OH), in [1], the Cytotoxicity of controls result is “no difference in cytotoxicity”.

As to “deglycosylated IgG1-ADC: IgG1-ADC with N-linked glycans removed”, the “Activity on MOLM-13 cells” value in the data set on MOLM-13 cells is on record as “no activity”. Further, in the data set with MOLM-13 xenograft, the “Anti tumor effect, native and deglycosylated ADCs” value was “only a minimal effect compared to PBS control mice”.

In the case of “IgG1-ADC: MMAF conjugated to the IgG1 based antibody palivizumab; CD64 but no FLT3 binding”, in data set [1], the Cytotoxicity of controls entry is recorded as “no cytotoxicity”. In addition, the “IC50, Ba/F3-pMIY-CD64” value in data set [2] was 31.8 ng/ml. Besides, in data set [3], the “IC50, Ba/F3 expressing both FLT3 and CD64” value turned out to be 0.0783 µg/mL. In addition, in the data set on MOLM-13 xenograft, the “Anti tumor effect, native and deglycosylated ADCs” value is reported as “reduced compared to native 20D9-ADC”. Besides, in the data set with healthy CD34+ BM cells, the “Clonogenic capacity (CFU)” value is “significantly reduced granulocytic, monocytic and granulocytic-macrophagic colony formation”. Moreover, the “Differentiation: cell populations of CD34+ cells” value in data set [4] is “significantly decreased MLPs, CMPs, and GMPs but to a lower extent compared to the 20D9 ADC”. Further, the “Cell viability of CD34+ cells” value in data set [5] was “significantly decreased cell viability”.

Regarding `CNC(=O)c1cc(Oc2ccc(NC(=O)Nc3ccc(Cl)c(C(F)(F)F)c3)cc2)ccn1` [Sorafenib], in data set [6], the “FLT3 cell surface expression” value is on record as “increase of FLT3 cell surface expression”.
